Experiments:
[1] = Tested for the 50% inhibition level against [125I]- gastrin binding to guinea pig gastric glands; assay type: functional, tissue-based, Cavia porcellus, Stomach
[2] = target: T1, Gastrin/cholecystokinin type B receptor (Rattus norvegicus, UniProt P30553); test: Tested for the 50% inhibition level against [125I]- gastrin binding in AR42J cells; assay type: cell-based, AR-42J
T1 sequence (P30553 whole entry): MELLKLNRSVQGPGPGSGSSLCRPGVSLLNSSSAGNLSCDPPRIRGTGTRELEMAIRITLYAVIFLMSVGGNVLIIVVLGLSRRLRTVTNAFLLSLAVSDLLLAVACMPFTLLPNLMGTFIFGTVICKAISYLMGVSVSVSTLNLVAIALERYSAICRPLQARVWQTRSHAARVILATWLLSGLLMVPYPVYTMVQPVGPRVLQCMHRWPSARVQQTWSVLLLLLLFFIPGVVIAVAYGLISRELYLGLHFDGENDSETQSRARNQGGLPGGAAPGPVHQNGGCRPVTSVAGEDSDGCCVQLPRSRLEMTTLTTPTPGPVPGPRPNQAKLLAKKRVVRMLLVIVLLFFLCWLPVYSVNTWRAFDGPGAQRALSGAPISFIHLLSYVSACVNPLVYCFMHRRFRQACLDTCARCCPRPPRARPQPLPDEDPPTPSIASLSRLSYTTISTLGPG

EC50 [1] | EC50 [2] | Compound
63 µM | 200 µM | O=C(CCC(=O)N(Cc1ccccc1)/N=N/CCCl)NCCC(=O)NC(Cc1c[nH]c2ccccc12)C(=O)O (stereo not drawn)
0.6 µM | – | CSCC[C@H](NC(=O)[C@H](Cc1c[nH]c2ccccc12)NC(=O)CNC(=O)[C@H](Cc1ccc(O)cc1)NC(=O)[C@H](C)NC(=O)[C@H](CCC(=O)O)NC(=O)[C@H](CCC(=O)O)NC(=O)[C@H](CCC(=O)O)NC(=O)[C@H](CCC(=O)O)NC(=O)[C@H](CCC(=O)O)NC(=O)[C@H](CC(C)C)NC(=O)[C@H](Cc1c[nH]c2ccccc12)NC(=O)[C@@H]1CCCN1C(=O)CNC(=O)[C@@H](N)CCC(=O)O)C(=O)N[C@@H](CC(=O)O)C(=O)N[C@@H](Cc1ccccc1)C(N)=O [GASTRIN]

— ChEMBL document CHEMBL1127393 (J Med Chem, 1994)
